Measured values published in PubChem BioAssay (NCI).
“And” between values parts separate entries of the source, which are not always exact repeats. Equal values may be shown once.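 Five concentrations, 48 hours, 96-well plates. At the GI50, growth is halved. Definition used: TGI = concentration required for complete inhibition of growth.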

Experiments:
Experiment in all cases: NCI tumour cell line growth inhibition, 48 h
[1] = test system: NCI-H23 lung
[2] = test system: OVCAR-3 ovarian
[3] = test system: HOP-62 NSCLC
[4] = test system: HT29 colon
[5] = test system: RXF 393 renal
[6] = test system: A498 renal
[7] = test system: P388 leukemia
[8] = test system: CAKI-1 renal
[9] = test system: SK-MEL-5 melanoma
[10] = test system: SW-620 colon
[11] = test system: P388/ADR leukemia
[12] = test system: DMS 114 small cell lung
[13] = test system: COLO 205 colon
[14] = test system: CCRF-CEM leukemia
[15] = test system: MCF7 breast
[16] = test system: HOP-92 NSCLC
[17] = test system: OVCAR-5 ovarian
[18] = test system: SK-OV-3 ovarian
[19] = test system: SF-539 CNS
[20] = test system: SK-MEL-2 melanoma
[21] = test system: SK-MEL-28 melanoma
[22] = test system: U251 CNS
[23] = test system: MALME-3M melanoma
[24] = test system: NCI-H226 lung
[25] = test system: HCC-2998 colon
[26] = test system: NCI-H460 lung
[27] = test system: HCT-15 colon
[28] = test system: SN12K1 renal
[29] = test system: DLD-1 colon
[30] = test system: HCT-116 colon
[31] = test system: SF-295 CNS
[32] = test system: RPMI-8226 leukemia
[33] = test system: HOP-18 NSCLC
[34] = test system: A549 NSCLC
[35] = test system: UACC-62 melanoma
[36] = test system: NCI-H522 lung
[37] = test system: IGROV1 ovarian
[38] = test system: KM12 colon
[39] = test system: MOLT-4 leukemia
[40] = test system: UO-31 renal
[41] = test system: OVCAR-8 ovarian
[42] = test system: SN12C renal
[43] = test system: KM20L2 colon
[44] = test system: OVCAR-4 ovarian
[45] = test system: EKVX NSCLC
[46] = test system: M19-MEL melanoma
[47] = test system: LOX IMVI melanoma
[48] = test system: SF-268 CNS
[49] = test system: DMS 273 small cell lung
[50] = test system: SNB-75 CNS
[51] = test system: SNB-78 CNS
[52] = test system: K-562 leukemia
[53] = test system: NCI/ADR-RES ovarian
[54] = test system: UACC-257 melanoma
[55] = test system: M14 melanoma
[56] = test system: SNB-19 CNS
[57] = test system: LXFL 529 NSCLC
[58] = test system: SR leukemia
[59] = test system: HS 578T breast
[60] = test system: DU-145 prostate
[61] = test system: TK-10 renal
[62] = test system: MDA-MB-231 breast
[63] = test system: 786-0 renal
[64] = test system: XF 498 CNS
[65] = test system: HL-60(TB) leukemia
[66] = test system: PC-3 prostate
[67] = test system: MDA-N
[68] = test system: BT-549 breast
[69] = test system: T-47D breast
[70] = test system: ACHN renal
[71] = test system: MDA-MB-435

Work on `C[C@@]12CC[C@H]3[C@@H]4CCC(=O)N[C@@]4(C)CC[C@@H]3[C@@]1(C)CC[C@H](OC(=O)Cc1ccc(N(CCCl)CCCl)cc1)C2` yielded a TGI [1] of 30.3 µM, a TGI [2] of 34.6 µM and a TGI [3] of 31.1 µM. It also gave a TGI [4] of 27.8 µM, a TGI [5] of 32 µM and a TGI [6] of 32.8 µM. The TGI [7] was 32 µM, the TGI [8] was 30.5 µM and the TGI [9] was 27.1 µM. The TGI [10] was 34.1 µM, the TGI [11] was 58.8 µM and the TGI [12] was 28.8 µM. The TGI [13] was 38.3 µM, the TGI [14] was 35.1 µM and the TGI [15] was 24.7 µM. For the same molecule, the TGI [16] was 35.3 µM, the TGI [17] was 31.5 µM and the TGI [18] was 28.5 µM. For the same molecule, the TGI [19] was 33.4 µM, the TGI [20] was greater than 100 µM and the TGI [21] was 33 µM. It also gave a TGI [22] of 28.8 µM, a TGI [23] of 36.1 µM and a TGI [24] of 33.2 µM. The TGI [25] was 31.2 µM, the TGI [26] was 28.2 µM and the TGI [27] was 36.1 µM. The TGI [28] was 32.5 µM, the TGI [29] was 47.1 µM and the TGI [30] was 29.9 µM. For the same molecule, the TGI [31] was 31.5 µM, the TGI [32] was 56 µM and the TGI [33] was 34 µM. For the same molecule, the TGI [34] was 30.4 µM, the TGI [35] was 30.5 µM and the TGI [36] was 34.4 µM. For the same molecule, the TGI [37] was 31.3 µM, the TGI [38] was 44.5 µM and the TGI [39] was 38.8 µM. It also gave a TGI [40] of 33.3 µM, a TGI [41] of 33.1 µM and a TGI [42] of 29.1 µM. It also gave a TGI [43] of 32.7 µM, a TGI [44] of 32.2 µM and a TGI [45] of 31.3 µM. For the same molecule, the TGI [46] was 32.8 µM, the TGI [47] was 27.8 µM and the TGI [48] was 31.9 µM. It also gave a TGI [49] of 30.3 µM, a TGI [50] of 33.5 µM and a TGI [51] of 39.2 µM. The TGI [52] was 48.7 µM, the TGI [53] was 37 µM and the TGI [54] was 55.8 µM.

For `C#CCN1CCN(C(=S)N/N=C(\C)c2ccccn2)CC1`, the GI50 [1] was 0.00567 µM, the TGI [1] was 3.99 µM and the GI50 [55] was 0.0781 µM. For the same molecule, the TGI [55] was 6.03 µM and 3.32 µM, the GI50 [2] was 0.00448 µM and the TGI [2] was 1.4 µM and 1.2 µM. It also gave a GI50 [3] of 0.124 µM, a TGI [3] of 5.89 µM and a GI50 [56] of 4.53 µM. For the same molecule, the TGI [56] was 17.2 µM, the GI50 [4] was 0.0028 µM and the TGI [4] was 3.74 µM and 8.33 µM. The GI50 [5] was 3.95 µM, the TGI [5] was 5.46 µM and 3.48 µM and the GI50 [6] was 3.31 µM. The TGI [6] was 5.47 µM and 5.21 µM, the GI50 [8] was 0.785 µM and the TGI [8] was 12.8 µM. For the same molecule, the TGI [9] was 5.05 µM and 2.86 µM, the TGI [10] was 7.3 µM and 4.27 µM and the TGI [57] was 18.2 µM. The GI50 [13] was 0.00362 µM, the TGI [13] was 2.3 µM and 0.915 µM and the TGI [14] was 2.14 µM. The TGI [58] was 2.36 µM, the GI50 [15] was less than 0.001 µM and the TGI [15] was 2.73 µM and 2.9 µM. For the same molecule, the GI50 [16] was 3.43 µM, the TGI [16] was 5.13 µM and 5.16 µM and the GI50 [17] was 0.14 µM. For the same molecule, the TGI [17] was 4.65 µM and 3.11 µM, the GI50 [18] was 1.57 µM and the TGI [18] was 2.91 µM and 5.09 µM. The GI50 [59] was 1.94 µM, the TGI [59] was 6.34 µM and 6.02 µM and the TGI [19] was 5.78 µM and 4.56 µM. The GI50 [60] was 1.19 µM, the TGI [60] was 4.74 µM and 6.36 µM and the GI50 [20] was 2.4 µM. For the same molecule, the TGI [20] was 5.41 µM and 4.64 µM, the GI50 [21] was 2.09 µM and the TGI [21] was 8.06 µM and 7.04 µM. For the same molecule, the GI50 [61] was 1.58 µM, the TGI [61] was 5.5 µM and 6.36 µM and the GI50 [22] was 0.0126 µM. The TGI [22] was 4.45 µM, the GI50 [23] was 0.496 µM and the TGI [23] was 5.76 µM and 4.6 µM. For the same molecule, the TGI [24] was 4.66 µM, the TGI [25] was 4.38 µM and the TGI [26] was 4.17 µM and 2.75 µM. It also gave a GI50 [27] of 0.019 µM, a TGI [27] of 4.19 µM and a TGI [28] of 2.22 µM. The GI50 [29] was 0.00155 µM, the TGI [29] was 6.58 µM and the TGI [62] was 3.54 µM and 5.04 µM. The GI50 [63] was 0.243 µM, the TGI [63] was 4.62 µM and 4.87 µM and the TGI [30] was 1.22 µM. For the same molecule, the GI50 [31] was 2.11 µM, the TGI [31] was 7.91 µM and 4.8 µM and the GI50 [32] was 0.00287 µM. For the same molecule, the TGI [64] was 2.72 µM, the TGI [33] was 10.6 µM and the GI50 [65] was 0.00195 µM. For the same molecule, the TGI [65] was 0.00497 µM and 0.0116 µM, the GI50 [34] was 0.273 µM and the TGI [34] was 8.09 µM and 2.16 µM. The GI50 [36] was less than 0.0292 µM, the TGI [36] was 6.52 µM and 2.27 µM and the GI50 [37] was 0.00303 µM. For the same molecule, the TGI [37] was 3.3 µM, the GI50 [38] was 0.4 µM and the TGI [38] was 4.6 µM and 6.33 µM. For the same molecule, the GI50 [39] was 0.136 µM, the TGI [39] was 2.28 µM and the GI50 [40] was 2.61 µM. The TGI [40] was 4.56 µM and 3.77 µM, the GI50 [41] was 0.0131 µM and the TGI [41] was 3.5 µM and 3.46 µM. It also gave a GI50 [42] of 2.39 µM, a TGI [42] of 11.4 µM and a GI50 [43] of less than 0.001 µM. For the same molecule, the TGI [43] was 15 µM, the GI50 [66] was 0.0121 µM and the TGI [66] was 2.48 µM and 1.45 µM. The GI50 [44] was 2.73 µM, the TGI [44] was 4.74 µM and 3.84 µM and the TGI [67] was 3.76 µM and 8.58 µM. For the same molecule, the GI50 [45] was 0.471 µM, the TGI [45] was 3.52 µM and 6.91 µM and the GI50 [47] was 1.6 µM. For the same molecule, the TGI [47] was 6.8 µM, the TGI [68] was 3.29 µM and 3.25 µM and the TGI [69] was 3.6 µM and 4.06 µM. The GI50 [70] was 0.0578 µM, the TGI [70] was 4.41 µM and 6.2 µM and the TGI [48] was 16.5 µM. The GI50 [49] was 0.0092 µM, the TGI [49] was 4.57 µM and the TGI [50] was 6.35 µM and 12.7 µM. The TGI [51] was 21.7 µM, the GI50 [52] was 0.00334 µM and the TGI [52] was 14 µM. The GI50 [53] was 0.0304 µM, the TGI [53] was 1.68 µM and 1.56 µM and the GI50 [54] was 0.00558 µM. For the same molecule, the TGI [54] was 2.72 µM and 2.53 µM and the TGI [71] was 3.39 µM and 4.03 µM.
